From patent publication US5919761A, “Peptides for heparin and low molecular weight heparin anticoagulation reversal” (The Board of Regents of the University of Michigan, priority 1995, dated 1999)
Several values for one entry are separate records, joined by “and”; a condition that tells them apart may be missing. Equal entries are not always repeated. Peptide text beside a SMILES is read from it.

Assays:
LMWH (LHN-1, Logiparin) = experiment: Percent reversal of LMWH anticoagulation, agents administered at different rates, canine study; type: in vivo, dogs
Experimental: (§1) Anticoagulation reversal was assessed by a number of standard coagulation tests performed upon samples of venous blood in the manner described hereinabove. Measurements were made 3 minutes prior to heparin reversal (baseline) and 3 minutes, 10 minutes, and 30 minutes post-administration of the heparin reversal agent.

[1] = Platelet count, leukocyte count and bleeding time after LMWH reversal at different rates, canine study; type: in vivo, dogs
Experimental: (§2) The anticoagulation-reversing agents were administered rapidly over 10 seconds to maximize hemodynamic effects or more slowly over a 3 minute interval. Changes in LMWH anticoagulation occurring from metabolism alone were determined in a separate group of dogs not given any reversal agent.

standard heparin = experiment: Percent reversal of standard heparin anticoagulation by peptide [+18BE] administered at different rates, dogs; type: in vivo
[2] = system: standard, unfractionated heparin; experiment: Factor Xa and IIa reversal after standard heparin, cell adhesion ligand analogs, canine study; type: in vivo; conditions: dogs, 3 min post administration
Experimental: as §1, with “agent. […] Referring to FIGS. 4a through 4d, compound [+18RGD] performs as well, or better, than n-protamine in the standard coagulation tests performed in these studies.” for “agent.”

[3] = Percent change in platelet count after standard heparin reversal, cell adhesion ligand analogs, canine study; type: in vivo; conditions: dogs, agent over 10 seconds
Experimental: In addition to hemodynamic changes, Table 15 lists the percent change in platelet count following administration of n-protamine and the selected variants, as well as the factor Xa and factor IIa reversal, as a percent change at 3 minutes post administration of the compound.

LMWH (Enoxaparin) = experiment: Factor Xa and IIa reversal after LMWH Enoxaparin, canine study; type: in vivo; conditions: dogs, 3 min
Experimental: Similar studies were conducted to assess the ability of the protamine-like peptide analogs described in this section to reverse the anticoagulation effects of the LMWH, Enoxaparin. FIG. 5a through FIG. 5d are graphical representations of LMWH anticoagulation activities achieved by n-protamine (Protamine [+21]), and compounds [+18BE], [+18KDEL], and [+18RGD] plotted as a percent of reversal against time in minutes. […] Referring to FIG. 5c, compound [+18RGD] dramatically outperforms n-protamine in reversing the heparin antifactor Xa activity of Enoxaparin.

[4] = Percent change in platelet count after Enoxaparin reversal, canine study; type: in vivo; conditions: dogs, agent over 10 seconds
Experimental: (§3) Seven female dogs (mean weight 15-20 kg) received intravenous standard, unfractionated heparin (150 IU/kg IV) or LMWH (Enoxaparin, Rhone-Poulac, France; 100 IU/kg factor Xa activity) followed by reversal with commercial salmine protamine (n-protamine purchased from Eli Lilly, Indianapolis, Ind., 1.5 mg/kg (100 IU/mg) IV) or an anticoagulation-reversing agent which is a protamine-like peptide variant identified hereinbelow. In these studies, the anticoagulation-reversing agents were administered over a 10 second interval to maximize the hemodynamic effects.

[5] = Maximum hemodynamic changes and total toxicity score after Enoxaparin reversal, canine study; conditions: dogs, agent over 10 seconds
Experimental: as §3

[6] = Hemodynamic studies and total toxicity score after LMWH reversal at different rates, canine study; conditions: dogs, Logiparin
Experimental: as §2
Hemodynamic studies were conducted by measuring mean arterial pressure (MAP) in mm Mercury, maximum percent changes in cardiac output (CO) and systemic oxygen consumption (VO2), and heart rate (HR) in beats per minute. Measurements and calculations were made at baseline, before LMWH administration, 3 minutes before reversal, every 30 seconds for 5 minutes after reversal, and at 10, 20, and 30 minutes after reversal.
(§4) TTS were developed that reflected maximum declines in each of four parameters (MAP, CO, VO2 and HR) over the first 5 minutes after reversal in the same manner as described hereinabove.

[7] = Hemodynamic studies and total toxicity score after standard heparin reversal at different rates, dogs
Experimental: Hemodynamic studies were conducted by measuring mean arterial pressure (MAP) in mm Mercury, maximum percent changes in cardiac output (CO) and systemic oxygen consumption (VO2), and heart rate (HR) in beats per minute. Measurements and calculations were made at baseline, before LMWH administration, 3 minutes before reversal, every 30 seconds for 5 minutes after reversal.
as §4

[8] = Maximum hemodynamic changes and total toxicity score after standard heparin reversal, cell adhesion ligand analogs, canine study; conditions: dogs, agent over 10 seconds
Experimental: In these studies, the anticoagulation-reversing agents were administered over a 10 second interval to maximize the hemodynamic effects.
Hemodynamic studies were conducted by measuring mean blood pressure (Mean BP) in mm Mercury, maximum percent changes in cardiac output (CO) and systemic oxygen consumption (VO2), and heart rate (HR) in beats per minute. Measurements and calculations were made at baseline, before administration of standard, unfractionated heparin, 3 minutes before reversal, every 30 seconds for 5 minutes after reversal.
Total toxicity scores (TTS) were developed in accordance with the method described hereinabove that reflected maximum declines in each of four parameters (MAP, CO, VO2 and HR) over the first 5 minutes after reversal.

[9] = administered over 10 sec, 3 min
[10] = administered over 10 sec, 10 min
[11] = administered over 10 sec, 30 min
[12] = administered over 3 min, 10 min
[13] = administered over 3 min, 30 min
[14] = dogs, Logiparin, administered over 10 sec
[15] = dogs, Logiparin, administered over 3 min

CC(=O)N[C@@H](CCC(=O)O)C(=O)N[C@@H](C)C(=O)N[C@@H](C)C(=O)N[C@@H](CCCCN)C(=O)N[C@@H](CCCCN)C(=O)N[C@@H](C)C(=O)N[C@@H](C)C(=O)N[C@@H](CCCCN)C(=O)N[C@@H](CCCCN)C(=O)N[C@@H](C)C(=O)N[C@@H](CCCCN)C(=O)N[C@@H](CCCCN)C(=O)N[C@@H](C)C(=O)N[C@@H](C)C(=O)N[C@@H](CCCCN)C(=O)N[C@@H](CCCCN)C(=O)N[C@@H](C)C(=O)N[C@@H](CCCCN)C(=O)N[C@@H](CCCCN)C(=O)N[C@@H](C)C(=O)N[C@@H](C)C(=O)N[C@@H](CCCCN)C(=O)N[C@@H](CCCCN)C(=O)N[C@@H](C)C(=O)N[C@@H](CCCCN)C(=O)N[C@@H](CCCCN)C(=O)N[C@@H](C)C(=O)N[C@@H](C)C(=O)N[C@@H](CCCCN)C(=O)N[C@@H](CCCCN)C(=O)N[C@@H](C)C(=O)N[C@@H](CCCCN)C(=O)N[C@@H](CCCCN)C(N)=O [[+18BE], acetyl-EA2 (K2 A2 K2 A)4 K2 amide] (Ac-EAAKKAAKKAKKAAKKAKKAAKKAKKAAKKAKK-NH2)
Percent reversal of LMWH anticoagulation, FNa (LMWH (LHN-1, Logiparin); [9]): 99% | Percent reversal of LMWH anticoagulation, FXa (LMWH (LHN-1, Logiparin); [9]): 73% | Percent reversal of LMWH anticoagulation, TCT (LMWH (LHN-1, Logiparin); [9]): 100% | Percent reversal of LMWH anticoagulation, ACT (LMWH (LHN-1, Logiparin); [10]): 78% | Percent reversal of LMWH anticoagulation, FNa (LMWH (LHN-1, Logiparin); [10]): 83% | Percent reversal of LMWH anticoagulation, FXa (LMWH (LHN-1, Logiparin); [10]): 51% | Percent reversal of LMWH anticoagulation, TCT (LMWH (LHN-1, Logiparin); [10]): 95% | Percent reversal of LMWH anticoagulation, ACT (LMWH (LHN-1, Logiparin); [11]): 81% | Percent reversal of LMWH anticoagulation, FNa (LMWH (LHN-1, Logiparin); [11]): 79% | Percent reversal of LMWH anticoagulation, FXa (LMWH (LHN-1, Logiparin); [11]): 59% | Percent reversal of LMWH anticoagulation, TCT (LMWH (LHN-1, Logiparin); [11]): 95% | Percent reversal of LMWH anticoagulation, FNa (LMWH (LHN-1, Logiparin); administered over 3 min, 3 min): 94% | Percent reversal of LMWH anticoagulation, FXa (LMWH (LHN-1, Logiparin); administered over 3 min, 3 min): 91% | Percent reversal of LMWH anticoagulation, TCT (LMWH (LHN-1, Logiparin); administered over 3 min, 3 min): 100% | Percent reversal of LMWH anticoagulation, ACT (LMWH (LHN-1, Logiparin); [12]): 95% | Percent reversal of LMWH anticoagulation, FNa (LMWH (LHN-1, Logiparin); [12]): 99% | Percent reversal of LMWH anticoagulation, FXa (LMWH (LHN-1, Logiparin); [12]): 68% | Percent reversal of LMWH anticoagulation, TCT (LMWH (LHN-1, Logiparin); [12]): 100% | Percent reversal of LMWH anticoagulation, ACT (LMWH (LHN-1, Logiparin); [13]): 97% | Percent reversal of LMWH anticoagulation, FNa (LMWH (LHN-1, Logiparin); [13]): 84% | Percent reversal of LMWH anticoagulation, FXa (LMWH (LHN-1, Logiparin); [13]): 60% | Percent reversal of LMWH anticoagulation, TCT (LMWH (LHN-1, Logiparin); [13]): 99% | Percent reversal of LMWH anticoagulation, ACT (LMWH (LHN-1, Logiparin); dogs, Logiparin, agent administered over 10 sec, 3 min post-administration): 65% | Percent reversal of LMWH anticoagulation, ACT (LMWH (LHN-1, Logiparin); dogs, Logiparin, agent administered over 3 min, 3 min post-administration): 89% | Maximal decline in leukocyte count [1, 14]: -1% | Maximal thrombocytopenia [1, 14]: -44% | Maximal decline in leukocyte count [1, 15]: -7% | Maximal thrombocytopenia [1, 15]: -49% | thrombocytopenia (platelet count change) ([1]; dogs, Logiparin, by 10 minutes, administered over a 3 minute interval): -8% | platelet count rebound ([1]; dogs, Logiparin, by 30 minutes, administered over a 3 minute interval): +35% | bleeding time ([1]; selected animals, given over a 3 minute interval): ≤ 8 min | Percent reversal of standard heparin anticoagulation, FNa (standard heparin; [9]): 100% | Percent reversal of standard heparin anticoagulation, FXa (standard heparin; [9]): 99% | Percent reversal of standard heparin anticoagulation, TCT (standard heparin; [9]): 100% | Percent reversal of standard heparin anticoagulation, ACT (standard heparin; [10]): 98% | Percent reversal of standard heparin anticoagulation, FNa (standard heparin; [10]): 99% | Percent reversal of standard heparin anticoagulation, FXa (standard heparin; [10]): 95% | Percent reversal of standard heparin anticoagulation, TCT (standard heparin; [10]): 98% | Percent reversal of standard heparin anticoagulation, ACT (standard heparin; [11]): 96% | Percent reversal of standard heparin anticoagulation, FNa (standard heparin; [11]): 100% | Percent reversal of standard heparin anticoagulation, FXa (standard heparin; [11]): 97% | Percent reversal of standard heparin anticoagulation, TCT (standard heparin; [11]): 98% | Percent reversal of standard heparin anticoagulation, FNa (standard heparin; administered over 3 min, 3 min): 99% | Percent reversal of standard heparin anticoagulation, FXa (standard heparin; administered over 3 min, 3 min): 99% | Percent reversal of standard heparin anticoagulation, TCT (standard heparin; administered over 3 min, 3 min): 100% | Percent reversal of standard heparin anticoagulation, ACT (standard heparin; [12]): 98% | Percent reversal of standard heparin anticoagulation, FNa (standard heparin; [12]): 98% | Percent reversal of standard heparin anticoagulation, FXa (standard heparin; [12]): 97% | Percent reversal of standard heparin anticoagulation, TCT (standard heparin; [12]): 100% | Percent reversal of standard heparin anticoagulation, ACT (standard heparin; [13]): 98% | Percent reversal of standard heparin anticoagulation, FNa (standard heparin; [13]): 99% | Percent reversal of standard heparin anticoagulation, FXa (standard heparin; [13]): 96% | Percent reversal of standard heparin anticoagulation, TCT (standard heparin; [13]): 100% | Percent reversal of standard heparin anticoagulation, ACT (standard heparin; dogs (n=7), administered over 10 sec, 3 min post-administration): 95% | Percent reversal of standard heparin anticoagulation, ACT (standard heparin; dogs (n=7), administered over 3 min, 3 min post-administration): 98% | IIa Reversal [2]: 100% | Xa Reversal [2]: 99% | Platelet (percent change in platelet count) [3]: -46% | IIa Reversal (LMWH (Enoxaparin)): 88% | Xa Reversal (LMWH (Enoxaparin)): 40% | Platelet (percent change in platelet count) [4]: -35% | Maximum hemodynamic change, Mean BP ([5]; Enoxaparin 100 IU/kg, 5 minutes): -1 mm Mercury | Total Toxicity Score (TTS) ([5]; Enoxaparin): -3.89 and -3.89 ± 2.37 | Maximum hemodynamic change, CO ([5]; Enoxaparin, 5 minutes): -5% | Maximum hemodynamic change, HR ([5]; Enoxaparin, 5 minutes): -4 beats/min | Maximum hemodynamic change, VO2 ([5]; Enoxaparin, 5 minutes): -6% | Total Toxicity Score ([6]; administered over 10 sec): -2.3 ± 3.6 | ΔCO ([6]; administered over 10 sec): -11% | ΔHr ([6]; administered over 10 sec): -13 beats per minute | ΔMAP ([6]; administered over 10 sec): -8 mm Mercury | ΔVO2 ([6]; administered over 10 sec): -12% | Total Toxicity Score ([6]; administered over 3 min): -2.2 ± 1.7 | ΔCO ([6]; administered over 3 min): -7% | ΔHr ([6]; administered over 3 min): -5 beats per minute | ΔMAP ([6]; administered over 3 min): 0 mm Mercury | ΔVO2 ([6]; administered over 3 min): -10% | Total Toxicity Score ([7]; administered over 10 sec): -2.14 ± 0.40 | ΔCO ([7]; administered over 10 sec): -9% | ΔHR ([7]; administered over 10 sec): -8 beats per minute | ΔMAP ([7]; administered over 10 sec): -1 mm Mercury | ΔVO2 ([7]; administered over 10 sec): -9% | Total Toxicity Score ([7]; administered over 3 min): -1.96 ± 0.55 | ΔCO ([7]; administered over 3 min): -17% | ΔHR ([7]; administered over 3 min): -8 beats per minute | ΔMAP ([7]; administered over 3 min): 1 mm Mercury | ΔVO2 ([7]; administered over 3 min): -10% | Maximum hemodynamic change, Mean BP ([8]; standard heparin 150 IU/kg IV, 5 minutes): -1 mm Mercury | Maximum hemodynamic change, CO ([8]; standard heparin, 5 minutes): -9% | Maximum hemodynamic change, HR ([8]; standard heparin, 5 minutes): -8 beats/min | Maximum hemodynamic change, VO2 ([8]; standard heparin, 5 minutes): -9% | Total Toxicity Score ([8]; standard unfractionated heparin): -2.41 ± 0.47
